# System: HCV genotype 1a replicon
# Experiment: HCV genotype 1a replicon assay (NS3 protease activity readout)
# Type: cell-based, hepatitis C virus
# Details: for Genotype 1a: HCV genotype 1a replicon; for EC50: Hepatitis C virus, read-out: Genotype 1a, HCV genotype 1a replicon
# In short: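 EC50 values came from a 4-parameter robust fit of fluorescence (ex 340, em 509 nm) produced by NS3-specific protease in lysates, assayed with 15 μM FRET substrate for 20 min at 37° C, after 48 or 72 hours of compound exposure (0.5% DMSO) of Huh7.5-derived APC89 genotype 1a replicon cells.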
Structure (SMILES),Genotype 1a,EC50 [nM]
COC(=O)N[C@H](C(=O)N1C[C@@H](OC)C[C@H]1c1nc(-c2ccc(-c3cc(Cl)c(NC(=O)c4ccc(N5CCN(C(=O)C(C)(C)CO)C[C@H]5C)nc4)cc3C(F)(F)F)cc2)c[nH]1)C1CCCCC1 [Example 19-15],D (D represents pEC50>10 (EC50<0.1 nM)),–
COC(=O)N[C@H](C(=O)N1C[C@@H](O)C[C@H]1c1nc(-c2ccc(-c3cc(Cl)c(NC(=O)c4ccc(N5CCN(C(=O)C(C)(C)CO)C[C@H]5C)nc4)cc3OC(F)(F)F)cc2)c[nH]1)C(C)C [Example 26-9],"C (C represents pEC50 between and 9 and about 10, (EC50 between 1 nM and 0.1 nM))",–
COC(=O)N[C@H](C(=O)N1C[C@@H](N)C[C@H]1c1nc(-c2ccc(-c3ccc(C(=O)Nc4ccc(N5CCN(C(=O)C6CC6(C)C)C[C@H]5C)nc4)cc3)cc2)c[nH]1)C(C)C (stereo partly drawn) [Example 6-4],–,10 to 1000
[2H]C([2H])([2H])C1(C([2H])([2H])[2H])C[C@@H]1C(=O)N1CCN(c2ccc(NC(=O)c3ccc(-c4ccc(-c5c[nH]c([C@@H]6C[C@H]([S+](C)[O-])CN6C(=O)[C@@H](NC(=O)OC)C(C)C)n5)cc4)c(OC(F)(F)F)c3)cn2)[C@H](C)C1 (stereo partly drawn) [Example 6-20],–,1 to 10
COC(=O)N[C@H](C(=O)N1C[C@@H](C)C[C@H]1c1nc(-c2ccc(-c3cc(Cl)c(NC(=O)c4ccc(N5CCN(C(=O)C6CCC6(C)C)C[C@H]5C)nc4)cc3OC(F)(F)F)cc2)c[nH]1)C(C)C (stereo partly drawn) [Example 12-21],–,< 0.1
CCCCC(=O)N1CCN(c2ccc(C(=O)Nc3cc(OC(F)(F)F)c(-c4ccc(-c5c[nH]c([C@@H]6C[C@H](C)CN6C(=O)[C@@H](NC(=O)OC)C(C)C)n5)cc4)cc3Cl)cn2)[C@H](C)C1 [Example 1-71],"C (C represents pEC50 between and 9 and about 10, (EC50 between 1 nM and 0.1 nM))",–
COC(=O)NC(C(=O)N1CC(OC)CC1c1nc(-c2ccc(-c3ccc(NC(=O)c4ccc(N5CCN(C(=O)C(C)(C)CO)CC5C)nc4)cc3OC(F)(F)F)cc2)c[nH]1)C(C)OC (stereo not drawn) [Example 16-16],D (D represents pEC50>10 (EC50<0.1 nM)),–
COC(=O)N[C@H](C(=O)N1C[C@@H](N(C)C)C[C@H]1c1nc(-c2ccc(-c3cc(Cl)c(NC(=O)c4ccc(N5CCN(C(=O)[C@H]6CC6(C)C)C[C@H]5C)nc4)cc3OC(F)(F)F)cc2)c[nH]1)C(C)C [Example 2-6],D (D represents pEC50>10 (EC50<0.1 nM)),–
COC(=O)N[C@H](C(=O)N1C[C@@H](OC)C[C@H]1c1nc(-c2ccc(-c3cc(Cl)c(NC(=O)c4ccc(N5CCN(C(=O)C(C)(C)CO)C[C@H]5C)nc4)cc3C(F)(F)F)cc2)c[nH]1)C1CCOCC1 [Example 19-13],D (D represents pEC50>10 (EC50<0.1 nM)),–
CNC(=O)N1CCC[C@@H]1C(=O)N1CCN(c2ccc(C(=O)Nc3cc(OC(F)(F)F)c(-c4ccc(-c5c[nH]c([C@@H]6C[C@H](C)CN6C(=O)[C@@H](NC(=O)OC)C(C)C)n5)cc4)cc3Cl)cn2)[C@H](C)C1 [Example 1-38],D (D represents pEC50>10 (EC50<0.1 nM)),–
COC(=O)N[C@H](C(=O)N1C[C@@H](OC)C[C@H]1c1nc(-c2ccc(-c3ccc(NC(=O)c4ccc(N5CCN(C(=O)C(C)(C)CO)C[C@H]5C)nc4)cc3OC(F)(F)F)cc2)c[nH]1)C1CCOCC1 [Example 28-4],D (D represents pEC50>10 (EC50<0.1 nM)),–
COC(=O)N[C@H](C(=O)N1C[C@@H](C)C[C@H]1c1nc(-c2ccc(-c3ccc(C(=O)Nc4ccc(N5C[C@H](C)N(C(=O)C(C)(C)C)C[C@H]5C)nc4)cc3OC(F)(F)F)cc2)c(Cl)[nH]1)C(C)C [Example 4-26],D (D represents pEC50>10 (EC50<0.1 nM)),–
COC(=O)N[C@H](C(=O)N1C[C@@H](C)C[C@H]1c1nc(-c2ccc(-c3cc(Cl)c(NC(=O)c4ccc(N5CCN(C(=O)C(C)(C)C)C[C@H]5C)nc4)cc3C(F)(F)F)cc2)c[nH]1)C1CCCC1 [Example 19-11],D (D represents pEC50>10 (EC50<0.1 nM)),–
COC(=O)N[C@H](C(=O)N1C[C@@H](C)C[C@H]1c1nc(-c2ccc(-c3cc(Cl)c(NC(=O)c4ccc(N5CCN(C(=O)C(C)(C)C)C[C@H]5C)nc4)cc3OC(F)(F)F)cc2)c(CO)[nH]1)C(C)C [Example 5-12],–,< 0.1
CNC(=O)N1C[C@@H](C)N(c2ccc(C(=O)Nc3cc(OC(F)(F)F)c(-c4ccc(-c5c[nH]c([C@@H]6C[C@H](C)CN6C(=O)[C@@H](NC(=O)OC)C(C)(C)C)n5)cc4)cc3Cl)cn2)C[C@@H]1C [Example 7-1],D (D represents pEC50>10 (EC50<0.1 nM)),–
COC(=O)NC(C(=O)N1CC(OC)CC1c1nc(-c2ccc(-c3ccc(NC(=O)c4ccc(N5CCN(C(=O)C(C)(C)C)CC5C)nc4)cc3OC(F)(F)F)cc2)c[nH]1)C(C)(C)O (stereo not drawn) [Example 16-18],D (D represents pEC50>10 (EC50<0.1 nM)),–
COC(=O)N[C@H](C(=O)N1C[C@@H](C)C[C@H]1c1nc(-c2ccc(-c3cc(Cl)c(C(=O)Nc4ccc(N5CCN(C(=O)C(C)(C)C)C[C@H]5C)nc4)cc3OC(F)(F)F)cc2)c(Cl)[nH]1)C(C)C [Example 4-47],"C (C represents pEC50 between and 9 and about 10, (EC50 between 1 nM and 0.1 nM))",–

Structure (SMILES),Genotype 1a,EC50 [nM]
COC(=O)N[C@H](C(=O)N1C[C@@H](C)C[C@H]1c1nc(-c2ccc(-c3cc(Cl)c(NC(=O)c4ccc(N5CCN(C(=O)C6(N)CC6(C)C)C[C@H]5C)nc4)cc3OC(F)(F)F)cc2)c[nH]1)C(C)C (stereo partly drawn) [Example 12-9],–,< 0.1
COC(=O)N[C@H](C(=O)N1C[C@@H](C)C[C@H]1c1nc(-c2ccc(-c3ccc(C(=O)Nc4ccc(N5CCN(C(=O)N(C)C)C[C@H]5C)nc4)cc3OC(F)(F)F)cc2)c[nH]1)C(C)C [Example 4-33],"C (C represents pEC50 between and 9 and about 10, (EC50 between 1 nM and 0.1 nM))",–
CNC(=O)N1CCC[C@@]1(C)C(=O)N1C[C@@H](C)N(c2ccc(C(=O)Nc3cc(OC(F)(F)F)c(-c4ccc(-c5c[nH]c([C@@H]6C[C@H](C)CN6C(=O)[C@@H](NC(=O)OC)C(C)C)n5)cc4)cc3Cl)cn2)C[C@@H]1C [Example 1-23],D (D represents pEC50>10 (EC50<0.1 nM)),–
COC(=O)N[C@H](C(=O)N1CC2(C[C@H]1c1nc(-c3ccc(-c4cc(Cl)c(NC(=O)c5ccc(N6CCN(C(=O)C(C)(C)C)C[C@H]6C)nc5)cc4OC(F)(F)F)cc3)c[nH]1)OCCO2)C(C)C [Example 5-11],–,< 0.1
COC(=O)N[C@H](C(=O)N1C[C@@H](OC)C[C@H]1c1nc(-c2ccc(-c3cc(Cl)c(NC(=O)c4ccc(N5C[C@H](C)N(C(=O)C(C)(C)CO)C[C@H]5C)nc4)cc3OC(F)(F)F)cc2)c[nH]1)C1CCOCC1 [Example 28-5],D (D represents pEC50>10 (EC50<0.1 nM)),–
COC(=O)N[C@H](C(=O)N1C[C@@H](OC)C[C@H]1c1nc(-c2ccc(-c3cc(F)c(NC(=O)c4ccc(N5CCN(C(=O)[C@H]6CC6(C)C)C[C@H]5C)nc4)cc3OC(F)(F)F)cc2)c[nH]1)C(C)C [Example 27-4],D (D represents pEC50>10 (EC50<0.1 nM)),–
COCCO[C@H]1C[C@@H](c2nc(-c3ccc(-c4cc(Cl)c(NC(=O)c5ccc(N6CCN(C(=O)C(C)(C)C)C[C@H]6C)nc5)cc4OC(F)(F)F)cc3)c[nH]2)N(C(=O)[C@@H](NC(=O)OC)C(C)C)C1 [Example 15-1],–,0.1 to 1
"COC(=O)N[C@H](C(=O)N1C[C@@H](C)C[C@H]1c1nc(-c2ccc(-c3cc(Cl)c(NC(=O)c4ccc(N5CCN(C(=O)C6CC6(Cl)Cl)C[C@H]5C)nc4)cc3OC(F)(F)F)cc2)c[nH]1)C(C)C (single isomer, unassigned) [Example 1-57]",D (D represents pEC50>10 (EC50<0.1 nM)),–
COC(=O)N[C@H](C(=O)N1C[C@@H](C)C[C@H]1c1nc(-c2ccc(-c3cc(Cl)c(NC(=O)c4ccc(N5CCN(C(=O)C6CCC6C)C[C@H]5C)nc4)cc3OC(F)(F)F)cc2)c[nH]1)C(C)C (stereo partly drawn) [Example 1-91],D (D represents pEC50>10 (EC50<0.1 nM)),–
COC(=O)N[C@H](C(=O)N1C[C@@H](C)C[C@H]1c1nc(-c2ccc(-c3cc(Cl)c(NC(=O)c4ccc(N5CCN(C(=O)C(C)(C)OC)C[C@H]5C)nc4)cc3OC(F)(F)F)cc2)c[nH]1)C(C)C [Example 12-43],–,< 0.1
COC(=O)N[C@H](C(=O)N1C[C@@H](C)C[C@H]1c1nc(-c2ccc(-c3cc(Cl)c(NC(=O)c4ccc(N5CCN(C(=O)C(C)(C)CNC(=O)C(C)(C)C)C[C@H]5C)nc4)cc3OC(F)(F)F)cc2)c[nH]1)C(C)C [Example 12-38],–,0.1 to 1
COC(=O)N[C@H](C(=O)N1C[C@@H](C)C[C@H]1c1nc(-c2ccc(-c3cc(Cl)c(NC(=O)c4ccc(N5CCN(C(=O)C(C)(C)CNC(=O)CCCC(=O)O)C[C@H]5C)nc4)cc3OC(F)(F)F)cc2)c[nH]1)C(C)C [Example 12-34],–,0.1 to 1
COC(=O)N[C@H](C(=O)N1C[C@@H](C)C[C@H]1c1nc(-c2ccc(-c3cc(Cl)c(NC(=O)c4ccc(N5CCN(C(=O)[C@H]6CCCN6C(=O)C(C)(C)C)C[C@H]5C)nc4)cc3OC(F)(F)F)cc2)c[nH]1)C(C)C [Example 1-50],D (D represents pEC50>10 (EC50<0.1 nM)),–
COC(=O)N[C@H](C(=O)N1C[C@@H](OC)C[C@H]1c1nc(-c2ccc(-c3cc(Cl)c(NC(=O)c4ccc(N5C[C@H](C)N(C(=O)C6CC6)C[C@H]5C)nc4)cc3OC(F)(F)F)cc2)c[nH]1)C1CCOCC1 [Example 28-10],D (D represents pEC50>10 (EC50<0.1 nM)),–
COC(=O)N[C@H](C(=O)N1C[C@@H](C)C[C@H]1c1nc(-c2ccc(-c3ccc(NC(=O)c4ccc(N5CCN(C(=O)[C@H]6CC6(C)C)C[C@H]5C)nc4)cc3OC(F)(F)F)cc2)c[nH]1)C(C)C [Example 1-74],D (D represents pEC50>10 (EC50<0.1 nM)),–
COC(=O)N[C@H](C(=O)N1C[C@@H](N(C)C)C[C@H]1c1nc(-c2ccc(-c3ccc(C(=O)Nc4ccc(N5CCN(C(=O)N(C)C)C[C@H]5C)nc4)cc3OC(F)(F)F)cc2)c(Cl)[nH]1)C(C)C [Example 10-4],–,0.1 to 1

# Source: patent publication US9212168B2 (priority 2011, dated 2015)
